Consider eight compounds from patent publication US8148391B2 (Cephalon, Inc., priority 2006, dated 2012).

Assay [1] addresses T1, c-Met (cytoplasmic domain) (Homo sapiens, UniProt P08581).
T1 construct: 10 ng/mL c-Met (cytoplasmic domain, Invitrogen Corporation #PV3143); purchased Invitrogen Corporation PV3143
Put plainly: c-Met Kinase Assay (same methods as for ALK, with modifications). It is filed as biochemical. In a few lines: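 Plates were coated with phospholipase C-γ substrate (10 μg/mL) in TBS, and the reaction was started with 10 ng/mL c-Met cytoplasmic domain and run 15 min at 37 °C. Phosphoproduct was detected with Eu-N1-labelled PT66 antibody. IC50 came from a variable-slope sigmoidal fit of percent inhibition vs log concentration.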

Assay [2] addresses T2, baculovirus-expressed ALK (Homo sapiens, UniProt Q9UM73).
T2 construct: host or cells: baculovirus expression system
As to the kind of experiment: ALK Kinase Assay (ELISA-type, time-resolved fluorescence). Format: biochemical. In a few lines:
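Plates coated with phospholipase C-γ substrate (10 μg/mL in TBS); reaction started with 30 ng/ml ALK and run 15 min at 37° C. Phosphorylated substrate detected with Eu-N1-labeled PT66 antibody. IC50 from sigmoidal variable-slope fit of percent inhibition vs log concentration.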

The mark [3] stands for this setting: 1 μM ATP (Km level), read-out: cMet Activity (c-Met Kinase Inhibition, IC50).
[4] abbreviates: 1 μM ATP (Km level), read-out: ALK Activity (ALK Kinase Inhibition, IC50).
[5] abbreviates: 1 μM ATP (Km level), 10 ng/mL c-Met, read-out: cMet Activity (c-Met kinase inhibition, IC50 class).
Where [6] appears, read: 1 μM ATP (Km level), 30 ng/ml ALK, 37° C., 15 minutes, read-out: ALK Activity (ALK kinase inhibition, IC50 class).
[7] abbreviates: c-Met kinase inhibition, 1 μM ATP (Km level), read-out: cMet Activity.
[8] abbreviates: ALK kinase inhibition, 1 μM ATP (Km level), read-out: ALK Activity.

Like-named read-outs stand apart in the source and are kept apart here. A value given as a limit tells only on which side of the number the result lay.

T1 sequence (P08581 956-1390 limits assumed): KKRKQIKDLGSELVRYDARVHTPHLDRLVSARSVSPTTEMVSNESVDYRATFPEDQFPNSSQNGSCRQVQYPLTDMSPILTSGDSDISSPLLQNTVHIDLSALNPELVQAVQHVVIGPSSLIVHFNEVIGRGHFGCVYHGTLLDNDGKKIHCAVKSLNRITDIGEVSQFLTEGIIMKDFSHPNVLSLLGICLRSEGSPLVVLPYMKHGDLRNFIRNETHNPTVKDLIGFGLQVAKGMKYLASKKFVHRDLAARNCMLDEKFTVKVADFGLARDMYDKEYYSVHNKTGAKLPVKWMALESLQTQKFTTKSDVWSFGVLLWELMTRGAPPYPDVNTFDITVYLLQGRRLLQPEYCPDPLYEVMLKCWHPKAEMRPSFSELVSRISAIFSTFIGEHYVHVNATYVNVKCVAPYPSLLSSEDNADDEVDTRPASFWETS
T2 sequence (Q9UM73 19-1620): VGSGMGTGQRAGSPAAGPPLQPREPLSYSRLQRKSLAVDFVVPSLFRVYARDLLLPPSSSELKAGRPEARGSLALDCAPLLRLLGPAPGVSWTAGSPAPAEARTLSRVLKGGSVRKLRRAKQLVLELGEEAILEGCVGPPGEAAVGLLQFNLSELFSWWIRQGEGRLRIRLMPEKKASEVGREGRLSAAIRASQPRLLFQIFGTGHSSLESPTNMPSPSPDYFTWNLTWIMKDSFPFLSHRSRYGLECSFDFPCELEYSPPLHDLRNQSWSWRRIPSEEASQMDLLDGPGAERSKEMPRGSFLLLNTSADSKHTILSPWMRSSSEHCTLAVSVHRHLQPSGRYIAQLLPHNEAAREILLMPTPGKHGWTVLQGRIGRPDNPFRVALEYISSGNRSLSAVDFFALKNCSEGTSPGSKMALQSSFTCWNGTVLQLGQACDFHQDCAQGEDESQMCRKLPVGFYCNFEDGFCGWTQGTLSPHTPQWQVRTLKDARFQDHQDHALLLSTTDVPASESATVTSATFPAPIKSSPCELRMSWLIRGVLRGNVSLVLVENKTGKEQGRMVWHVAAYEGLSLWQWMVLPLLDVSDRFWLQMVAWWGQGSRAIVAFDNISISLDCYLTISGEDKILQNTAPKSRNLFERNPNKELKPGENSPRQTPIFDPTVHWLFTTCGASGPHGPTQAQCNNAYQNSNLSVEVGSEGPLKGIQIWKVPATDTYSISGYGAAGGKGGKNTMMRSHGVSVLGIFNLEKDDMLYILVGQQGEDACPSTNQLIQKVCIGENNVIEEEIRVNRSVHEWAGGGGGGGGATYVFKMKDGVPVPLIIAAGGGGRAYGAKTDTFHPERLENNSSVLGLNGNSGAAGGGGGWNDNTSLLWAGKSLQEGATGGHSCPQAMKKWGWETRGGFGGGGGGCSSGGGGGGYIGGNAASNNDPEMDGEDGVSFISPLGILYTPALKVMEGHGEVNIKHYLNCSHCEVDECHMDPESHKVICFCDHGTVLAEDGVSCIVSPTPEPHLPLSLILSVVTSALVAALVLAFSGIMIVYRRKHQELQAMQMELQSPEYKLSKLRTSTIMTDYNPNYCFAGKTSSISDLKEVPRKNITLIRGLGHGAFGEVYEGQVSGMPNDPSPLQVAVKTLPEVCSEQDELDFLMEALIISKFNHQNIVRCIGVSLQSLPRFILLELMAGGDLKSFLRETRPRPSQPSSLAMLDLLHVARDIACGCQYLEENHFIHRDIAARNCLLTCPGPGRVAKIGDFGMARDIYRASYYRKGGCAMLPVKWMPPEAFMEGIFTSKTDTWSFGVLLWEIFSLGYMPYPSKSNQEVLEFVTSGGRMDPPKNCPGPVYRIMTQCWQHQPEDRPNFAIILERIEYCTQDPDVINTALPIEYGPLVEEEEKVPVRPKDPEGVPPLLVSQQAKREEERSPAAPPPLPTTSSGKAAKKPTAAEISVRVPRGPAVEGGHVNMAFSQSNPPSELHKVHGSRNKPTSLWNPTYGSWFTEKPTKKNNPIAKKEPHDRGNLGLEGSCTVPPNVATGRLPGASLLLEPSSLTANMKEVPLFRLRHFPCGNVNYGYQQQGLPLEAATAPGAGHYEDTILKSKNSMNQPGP

As to `CNC(=O)c1ccccc1Nc1nc(Nc2ccc3c(c2)CN(CCOC)CCS3)ncc1Cl` [Example 522, 2-{5-Chloro-2-[8-(2-methoxy-ethyl)-6,7,8,9-tetrahydro-5-thia-8-aza-benzocyclohepten-2-ylamino]-pyrimidin-4-ylamino}-N-methyl-benzamide], the IC50 is 100 to 1000 nM in assay [1] (setting [3]) and less than 100 nM in assay [2] (setting [4]).
For `CCN1CCN(CC)c2cc(Nc3ncc(Cl)c(Nc4ccc5c(c4)N(CC)CCN(CC)C5=O)n3)ccc2C1` [Example 722, 8-[5-Chloro-2-(1,4-diethyl-2,3,4,5-tetrahydro-1H-benzo[e][1,4]diazepin-8-ylamino)-pyrimidin-4-ylamino]-1,4-diethyl-1,2,3,4-tetrahydro-benzo[e][1,4]diazepin-5-one] the same measures were more than 10000 nM and 100 to 1000 nM.
As for `CNC(=O)c1ccc(N)cc1Nc1nc(Nc2ccc3c(c2)C(C)(C)CCC(=O)N3)ncc1Cl` [Example 1239, 4-Amino-2-[5-chloro-2-(5,5-dimethyl-2-oxo-2,3,4,5-tetrahydro-1H-1-benzazepin-7-ylamino)-pyrimidin-4-ylamino]-N-methyl-benzamide], the IC50 was 1000 to 10000 nM in assay [1] (setting [5]) and less than 100 nM in assay [2] (setting [6]).
Take `C#CCN1CC2OC(C1)c1cc(Nc3ncc(Cl)c(Nc4ccccc4C(=O)NC)n3)ccc12` (stereo not shown) [Example 63, 2-[5-Chloro-2-(10-prop-2-ynyl-12-oxa-10-aza-tricyclo[6.3.1.0*2,7*]dodeca-2,4,6-trien-4-ylamino)-pyrimidin-4-ylamino]-N-methyl-benzamide]: the IC50 is less than 100 nM in assay [1] (setting [7]) and 100 to 1000 nM in assay [2] (setting [8]).
In the case of `CCN1C(=O)CN(C(C)=O)Cc2ccc(Nc3ncc(Cl)c(Nc4ccccc4C(=O)NC)n3)cc21` [Example 1855, 2-[2-(4-Acetyl-1-ethyl-2-oxo-2,3,4,5-tetrahydro-1H-benzo[e][1,4]diazepin-8-ylamino)-5-chloro-pyrimidin-4-ylamino]-N-methyl-benzamide], the IC50 in assay [1] (c-Met kinase inhibition, 1 μM ATP, read-out: cMet Activity) was less than 100 nM; in assay [2] (ALK kinase inhibition, 1 μM ATP, read-out: ALK Activity), 1000 to 10000 nM.
Take `C#CCNC(=O)c1cccc(F)c1Nc1nc(Nc2ccc3c(c2)OCCCN3C(=O)OC)ncc1Cl` [Example 1430, 3-[5-Chloro-4-(2-fluoro-6-prop-2-ynylcarbamoyl-phenylamino)-pyrimidin-2-ylamino]-7,8-dihydro-6H-5-oxa-9-aza-benzocycloheptene-9-carboxylic acid methyl ester]: the values for the IC50 in assay [1] (setting [5]) and in assay [2] (setting [6]) were less than 100 nM and 100 to 1000 nM, respectively.
For `CN1C(=O)CCCc2cc(Nc3ncc(Cl)c(Nc4ccccc4C(=O)NCCO)n3)ccc21` [Example 6, 2-[5-Chloro-2-(1-methyl-2-oxo-2,3,4,5-tetrahydro-1H-benzo[b]azepin-7-ylamino)-pyrimidin-4-ylamino]-N-(2-hydroxy-ethyl)-benzamide], the IC50 in assay [1] (setting [7]) and in assay [2] (setting [8]) was less than 100 nM each time.
`CCNC(=O)c1ccccc1Nc1nc(Nc2cc3c(cc2OC)CCN(CC(C)(F)F)CC3)ncc1Cl` [Example 788, 2-{5-Chloro-2-[3-(2,2-difluoro-propyl)-8-methoxy-2,3,4,5-tetrahydro-1H-benzo[d]azepin-7-ylamino]-pyrimidin-4-ylamino}-N-ethyl-benzamide]: the IC50 in assay [1] (setting [3]) was more than 10000 nM; in assay [2] (setting [4]), less than 100 nM.
